# Experimental data reported in patent US20250049774A1, “Crystalline Forms of Apalutamide” (Apotex Inc., priority 2021, published 2025).
# How the values were obtained:
# [1] = Intrinsic dissolution rate (IDR), Wood's apparatus; assay type: physicochemical; conditions: 900 ml distilled water, 37° C., 50 rpm; approx. 200 mg compressed at 1.5 metric tons for 1 minute
# Method: Intrinsic dissolution rate (IDR) measurements were performed using a Wood's apparatus. Samples were prepared by compressing an amount (approximately 200 mg) of sample at 1.5 metric tons for 1 minute. A dissolution medium consisting of 900 ml distilled water maintained at 37° C., and rotation speed of 50 rpm, was used for each experiment.
# [2] = drug substance, as described in CHMP Assessment Report; cited from earlier work
# [3] = drug substance, as described in CHMP Assessment Report; cited from earlier work; remark: listed apart in the source
Intrinsic Dissolution Rate [1],SMILES,permeability [2],Biopharmaceutics Classification System (BCS) class [3],aqueous solubility [3]
0.0085 mg min^−1 cm^−2,CNC(=O)c1ccc(N2C(=S)N(c3cnc(C#N)c(C(F)(F)F)c3)C(=O)C23CCC3)cc1F [Apalutamide Amorphous Form],,,
0.0065 mg min^−1 cm^−2,CNC(=O)c1ccc(N2C(=S)N(c3cnc(C#N)c(C(F)(F)F)c3)C(=O)C23CCC3)cc1F [Apalutamide Form B],,,
,"CNC(=O)c1ccc(N2C(=S)N(c3cnc(C#N)c(C(F)(F)F)c3)C(=O)C23CCC3)cc1F [apalutamide, (4-[7-(6-cyano-5-trifluoromethylpyridin-3-yl)-8-oxo-6-thioxo-5,7-diazaspiro[3.4]oct-5-yl]-2-fluoro-N-methylbenzamide)]",high,Class II,"low, pH-independent"
